Measured values reported in patent US10363239B2, “Method for inhibiting growth of cancer cells” (Pain Therapeutics, Inc., priority 2013, dated 2019).
Read-outs that look alike come from different tables or passages of the source.

Key:
mu opiate receptor (MOR) = assay: MOR agonist activity using [35S]GTPγS binding assay in striatal membranes; format: biochemical
In short: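 Striatal membranes (200 μg) were preincubated 5 min at 30 °C in HEPES pH 7.5 with 100 mM NaCl, 1 mM MgCl2 and 0.5 nM [35S]GTPγS, then 5 min more with 0.1–10 μM compound. Gαo was immunoprecipitated and bound radioactivity counted by scintillation.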

[1] = molecular target: FLNA pentapeptide of SEQ ID NO: 1 (Bn-VAKGL) (Homo sapiens, UniProt P21333); assay: FITC-NLX-based FLNA screening assay (inhibition of FITC-naloxone binding to Bn-VAKGL on streptavidin plates); conditions: 10 nM FITC-NLX
[2] = Series B, 0.1 μM compound, relative to DAMGO
[3] = Series B, 0.1 μM compound, [35S]GTPγS binding to Gαo, striatal membranes
[4] = Series B, 1 μM compound + 1 μM β-FNA
[5] = Series B, 1 μM compound + β-FNA, relative to DAMGO + BFNA
[6] = Series B, 1 μM compound, relative to DAMGO
[7] = Series B, 1 μM compound, [35S]GTPγS binding to Gαo, striatal membranes
[8] = FLNA-binding compound 0.01 μM, read-out: Percent Binding Inhibition
[9] = FLNA-binding compound 0.1 μM, read-out: Percent Binding Inhibition
[10] = FLNA-binding compound 1 μM, read-out: Percent Binding Inhibition
[11] = Series C-1, 0.1 μM compound, relative to DAMGO
[12] = Series C-1, 0.1 μM compound, [35S]GTPγS binding to Gαo, striatal membranes
[13] = Series C-1, 1 μM compound + 1 μM β-FNA
[14] = Series C-1, 1 μM compound + β-FNA, relative to DAMGO + BFNA
[15] = Series C-1, 1 μM compound, relative to DAMGO
[16] = Series C-1, 1 μM compound, [35S]GTPγS binding to Gαo, striatal membranes
[17] = read-out: Percent Binding Inhibition, FLNA-binding compound 0.01 μM
[18] = read-out: Percent Binding Inhibition, FLNA-binding compound 0.1 μM
[19] = read-out: Percent Binding Inhibition, FLNA-binding compound 1 μM

COc1c2c(cc3c1C(CC(=O)CCc1ccccc1)N(C)CC3)OCO2 (stereo not drawn) [Compound B0050]
% DAMGO (0.1 μM) (mu opiate receptor (MOR); [2]): 58.1% | MOR agonist activity, percent [35S]GTPγS binding at the stated compound concentration (mu opiate receptor (MOR); [3]): 98.2% | MOR agonist activity, percent [35S]GTPγS binding at the stated compound concentration (mu opiate receptor (MOR); [4]): 48.8% | % DAMGO + BFNA (mu opiate receptor (MOR); [5]): 294.0% | % DAMGO (1 μM) (mu opiate receptor (MOR); [6]): 96.4% | MOR agonist activity, percent [35S]GTPγS binding at the stated compound concentration (mu opiate receptor (MOR); [7]): 211.0% | inhibition at 0.01 µM [1, 8]: 29.2% | inhibition at 0.1 µM [1, 9]: 34.5% | inhibition at 1 µM [1, 10]: 39.8%

Cc1ccc(S(=O)(=O)N2CCC3(CC2)OCCN3S(=O)(=O)c2ccc(C)cc2)cc1 [Compound C0001]
% DAMGO (0.1 μM) (mu opiate receptor (MOR); [11]): 75.2% | Concentration of FLNA-Binding Compound as Agonist 0.1 μM (mu opiate receptor (MOR); [12]): 129.3% | Concentration of FLNA-Binding Compound as Agonist 1 μM + BFNA (mu opiate receptor (MOR); [13]): 33.9% | % DAMGO + BFNA (mu opiate receptor (MOR); [14]): 52.9% | % DAMGO (1 μM) (mu opiate receptor (MOR); [15]): 66.6% | Concentration of FLNA-Binding Compound as Agonist 1 μM (mu opiate receptor (MOR); [16]): 184.3% | inhibition at 0.01 µM [1, 17]: 34.8% | inhibition at 0.1 µM [1, 18]: 42.9% | inhibition at 1 µM [1, 19]: 51.3%

O=S(=O)(c1ccc(-c2ccccc2)cc1)N1CCC2(CC1)OCCN2S(=O)(=O)c1ccc(-c2ccccc2)cc1 [Compound C0010]
% DAMGO (0.1 μM) (mu opiate receptor (MOR); [11]): 80.7% | Concentration of FLNA-Binding Compound as Agonist 0.1 μM (mu opiate receptor (MOR); [12]): 136.5% | Concentration of FLNA-Binding Compound as Agonist 1 μM + BFNA (mu opiate receptor (MOR); [13]): 89.1% | % DAMGO + BFNA (mu opiate receptor (MOR); [14]): 135.0% | % DAMGO (1 μM) (mu opiate receptor (MOR); [15]): 114.9% | Concentration of FLNA-Binding Compound as Agonist 1 μM (mu opiate receptor (MOR); [16]): 307.0% | inhibition at 0.01 µM [1, 17]: 39.8% | inhibition at 0.1 µM [1, 18]: 42.7% | inhibition at 1 µM [1, 19]: 47.1%

O=S(=O)(c1ccc(Br)cc1Br)N1CCC2(CC1)OCCN2S(=O)(=O)c1ccc(Br)cc1Br [Compound C0070]
% DAMGO (0.1 μM) (mu opiate receptor (MOR); [11]): 96.2% | Concentration of FLNA-Binding Compound as Agonist 0.1 μM (mu opiate receptor (MOR); [12]): 165.6% | Concentration of FLNA-Binding Compound as Agonist 1 μM + BFNA (mu opiate receptor (MOR); [13]): 114.2% | % DAMGO + BFNA (mu opiate receptor (MOR); [14]): 331.0% | % DAMGO (1 μM) (mu opiate receptor (MOR); [15]): 95.9% | Concentration of FLNA-Binding Compound as Agonist 1 μM (mu opiate receptor (MOR); [16]): 210.8% | inhibition at 0.01 µM [1, 8]: 42.6% | inhibition at 0.1 µM [1, 9]: 50.6% | inhibition at 1 µM [1, 10]: 53.6%

COc1ccc(CCC(=O)CC2c3c(cc4c(c3OC)OCO4)CC[N+]2(C)C)cc1 (stereo not drawn) [Compound B0016]
% DAMGO (0.1 μM) (mu opiate receptor (MOR); [2]): 99.2% | MOR agonist activity, percent [35S]GTPγS binding at the stated compound concentration (mu opiate receptor (MOR); [3]): 167.7% | MOR agonist activity, percent [35S]GTPγS binding at the stated compound concentration (mu opiate receptor (MOR); [4]): 72.2% | % DAMGO + BFNA (mu opiate receptor (MOR); [5]): 109.4% | % DAMGO (1 μM) (mu opiate receptor (MOR); [6]): 79.9% | MOR agonist activity, percent [35S]GTPγS binding at the stated compound concentration (mu opiate receptor (MOR); [7]): 213.6% | inhibition at 0.01 µM [1, 17]: 27.1% | inhibition at 0.1 µM [1, 18]: 33.7% | inhibition at 1 µM [1, 19]: 41.9%

COc1ccccc1S(=O)(=O)N1CCC2(CC1)OCCN2S(=O)(=O)c1ccccc1OC [Compound C0003]
% DAMGO (0.1 μM) (mu opiate receptor (MOR); [11]): 91.9% | Concentration of FLNA-Binding Compound as Agonist 0.1 μM (mu opiate receptor (MOR); [12]): 162.3% | Concentration of FLNA-Binding Compound as Agonist 1 μM + BFNA (mu opiate receptor (MOR); [13]): 107.7% | % DAMGO + BFNA (mu opiate receptor (MOR); [14]): 163.9% | % DAMGO (1 μM) (mu opiate receptor (MOR); [15]): 83.3% | Concentration of FLNA-Binding Compound as Agonist 1 μM (mu opiate receptor (MOR); [16]): 215.9% | inhibition at 0.01 µM [1, 17]: 38.3% | inhibition at 0.1 µM [1, 18]: 45.3% | inhibition at 1 µM [1, 19]: 48.8%

O=C(c1ccc([N+](=O)[O-])cc1)N1CCC2(CC1)OCCN2S(=O)(=O)c1ccc([N+](=O)[O-])cc1 [Compound C0022]
% DAMGO (0.1 μM) (mu opiate receptor (MOR); [11]): 113.5% | Concentration of FLNA-Binding Compound as Agonist 0.1 μM (mu opiate receptor (MOR); [12]): 194.3% | Concentration of FLNA-Binding Compound as Agonist 1 μM + BFNA (mu opiate receptor (MOR); [13]): 13.4% | % DAMGO + BFNA (mu opiate receptor (MOR); [14]): 25.7% | % DAMGO (1 μM) (mu opiate receptor (MOR); [15]): 123.2% | Concentration of FLNA-Binding Compound as Agonist 1 μM (mu opiate receptor (MOR); [16]): 328.7% | inhibition at 0.01 µM [1, 17]: 34.5% | inhibition at 0.1 µM [1, 18]: 37.6% | inhibition at 1 µM [1, 19]: 43.9%

CC1CCC(C(C)C)C(OCC(O)CN2CCN(CCN3CCOCC3)CC2)C1 (stereo not drawn) [Compound A0011]
MOR agonist activity ([35S]GTPγS binding), FLNA-Binding Compound as Agonist 0.1 μM (mu opiate receptor (MOR); 0.1 μM compound): 236.3% | % DAMGO (0.1 μM) (mu opiate receptor (MOR); 0.1 μM compound relative to DAMGO): 158.2% | MOR agonist activity ([35S]GTPγS binding), FLNA-Binding Compound as Agonist 1 μM (mu opiate receptor (MOR); 1 μM compound): 287.5% | MOR agonist activity ([35S]GTPγS binding), FLNA-Binding Compound as Agonist 1 μM + BFNA (mu opiate receptor (MOR); 1 μM compound + 1 μM β-funaltrexamine): 47.0% | % DAMGO + BFNA (mu opiate receptor (MOR); 1 μM compound + BFNA relative to DAMGO + BFNA): 177.4% | % DAMGO (1 μM) (mu opiate receptor (MOR); 1 μM compound relative to DAMGO): 124.9% | inhibition at 0.01 µM [1, 8]: 45.7% | inhibition at 0.1 µM [1, 9]: 51.1% | inhibition at 1 µM [1, 10]: 52.8%
